Measurements: ChEMBL document CHEMBL5625272, “A PSMA-targeted doxorubicin small-molecule drug conjugate” (Bioorg Med Chem Lett, 2024)

Legend:
[1] = Drug uptake in PSMA positive human LNCaP C4-2B cells assessed as increase in fluorescence at 10 uM incubated for 10 mins by DAPI staining based confocal microscopy analysis; assay type: ADME, cell-based
[2] = Drug uptake in human PC-3 cells with PSMA knockout assessed as increase in fluorescence at 10 uM incubated for 10 mins by DAPI staining based confocal microscopy analysis; assay type: ADME, cell-based; conditions: pc-3, 10 min
[3] = Drug uptake in PSMA positive human LNCaP C4-2B cells assessed as increase in fluorescence at 10 uM incubated for 10 mins in presence of CTT1057 by DAPI staining based confocal microscopy analysis; assay type: ADME, cell-based
PC-3 = test: Anticancer activity against human PC-3 cells with PSMA knockout cells assessed as reduction in cell viability measured after 72 hrs by celltiter-glo assay; assay type: functional, cell-based; conditions: dose 0.313-20 µM
LNCaP C4-2B = test: Anticancer activity against PMSA positive human LNCaP C4-2B cells assessed as reduction in cell viability measured after 72 hrs by celltiter-glo assay; assay type: functional, cell-based; conditions: dose 0.313-20 µM
[4] = molecular target: Glutamate carboxypeptidase 2 (Homo sapiens, UniProt Q04609); test: Irreversible inhibition of PSMA (unknown origin)
Chain of Glutamate carboxypeptidase 2 (Q04609 whole entry): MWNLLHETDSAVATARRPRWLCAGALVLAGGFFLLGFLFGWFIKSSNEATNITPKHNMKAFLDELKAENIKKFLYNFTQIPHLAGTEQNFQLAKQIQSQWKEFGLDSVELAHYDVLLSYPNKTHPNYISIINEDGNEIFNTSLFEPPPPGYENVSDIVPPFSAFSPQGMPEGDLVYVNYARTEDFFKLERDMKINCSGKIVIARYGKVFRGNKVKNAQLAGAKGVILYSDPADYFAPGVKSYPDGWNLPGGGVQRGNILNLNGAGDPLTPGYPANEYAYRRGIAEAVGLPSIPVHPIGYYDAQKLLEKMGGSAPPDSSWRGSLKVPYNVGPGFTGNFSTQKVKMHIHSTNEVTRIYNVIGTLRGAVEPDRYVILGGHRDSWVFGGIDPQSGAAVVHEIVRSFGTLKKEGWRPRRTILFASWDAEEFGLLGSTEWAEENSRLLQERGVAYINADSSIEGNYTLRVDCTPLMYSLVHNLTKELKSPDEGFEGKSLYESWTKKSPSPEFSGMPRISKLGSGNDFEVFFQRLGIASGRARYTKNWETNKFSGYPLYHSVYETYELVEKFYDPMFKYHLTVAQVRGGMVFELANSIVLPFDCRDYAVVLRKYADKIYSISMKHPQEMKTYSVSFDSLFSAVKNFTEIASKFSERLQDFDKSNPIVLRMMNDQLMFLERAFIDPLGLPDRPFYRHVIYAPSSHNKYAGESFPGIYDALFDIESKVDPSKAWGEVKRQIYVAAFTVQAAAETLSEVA

| Drug uptake [1] | Drug uptake [2] | Drug uptake [3] | IC50 [4] [µM] | SMILES | Activity (PC-3) | Activity (LNCaP C4-2B) |
| --- | --- | --- | --- | --- | --- | --- |
| Active | Not Active | Not Active |  | COc1cccc2c1C(=O)c1c(O)c3c(c(O)c1C2=O)C[C@@](O)(C(=O)CO)C[C@@H]3O[C@H]1C[C@H](NC(=O)OCc2ccc(NC(=O)[C@H](CCCNC(N)=O)NC(=O)[C@@H](NC(=O)c3ccc(Cn4nnc5c4-c4ccccc4CN(C(=O)CCCCC(=O)NCCCCCC(=O)N[C@@H](CCC(=O)N[C@@H](CCCOP(=O)(O)N[C@@H](CCC(=O)O)C(=O)O)C(=O)O)C(=O)O)c4ccccc4-5)cc3)C(C)C)cc2)[C@H](O)[C@H](C)O1 | Dose-Dependent Effect | Dose-Dependent Effect |
|  |  |  | 10 | COc1cccc2c1C(=O)c1c(O)c3c(c(O)c1C2=O)C[C@@](O)(C(=O)CO)C[C@@H]3O[C@H]1C[C@H](N)[C@H](O)[C@H](C)O1 [DOXORUBICIN] |  |  |
